{"source": "PubChem BioAssay (NCI)", "test_in_all_cases": "growth of human tumour cells (NCI), 48 h", "key": {"HOP-92 NSCLC": {"test_system": "HOP-92 NSCLC"}, "PC-3 prostate": {"test_system": "PC-3 prostate"}, "OVCAR-8 ovarian": {"test_system": "OVCAR-8 ovarian"}, "HCC-2998 colon": {"test_system": "HCC-2998 colon"}, "M14 melanoma": {"test_system": "M14 melanoma"}, "NCI-H460 lung": {"test_system": "NCI-H460 lung"}, "KM12 colon": {"test_system": "KM12 colon"}, "UACC-62 melanoma": {"test_system": "UACC-62 melanoma"}, "SK-MEL-28 melanoma": {"test_system": "SK-MEL-28 melanoma"}, "OVCAR-5 ovarian": {"test_system": "OVCAR-5 ovarian"}, "A549 NSCLC": {"test_system": "A549 NSCLC"}, "SN12C renal": {"test_system": "SN12C renal"}, "SNB-75 CNS": {"test_system": "SNB-75 CNS"}, "MDA-MB-435": {"test_system": "MDA-MB-435"}, "HCT-116 colon": {"test_system": "HCT-116 colon"}, "NCI/ADR-RES ovarian": {"test_system": "NCI/ADR-RES ovarian"}, "RXF 393 renal": {"test_system": "RXF 393 renal"}, "OVCAR-3 ovarian": {"test_system": "OVCAR-3 ovarian"}, "MDA-MB-231 breast": {"test_system": "MDA-MB-231 breast"}, "HS 578T breast": {"test_system": "HS 578T breast"}, "ACHN renal": {"test_system": "ACHN renal"}, "HCT-15 colon": {"test_system": "HCT-15 colon"}, "MCF7 breast": {"test_system": "MCF7 breast"}, "MALME-3M melanoma": {"test_system": "MALME-3M melanoma"}, "SF-268 CNS": {"test_system": "SF-268 CNS"}, "786-0 renal": {"test_system": "786-0 renal"}, "MOLT-4 leukemia": {"test_system": "MOLT-4 leukemia"}, "CAKI-1 renal": {"test_system": "CAKI-1 renal"}, "SF-539 CNS": {"test_system": "SF-539 CNS"}}, "note": "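Exposure lasted 48 hours, with cells grown in 96-well plates and compounds tested at five concentrations. GI50 = concentration required for 50% inhibition of growth. At the TGI there is no net growth.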"}
{"smiles": "CCc1ccc(C(=O)/C=C/C23c4ccccc4C(c4ccccc42)C2C(=O)NC(=O)C23)cc1", "note": "(configuration not stated)", "values": [{"measurement": "TGI", "setting": "HOP-92 NSCLC", "result": 3.5, "unit": "µM"}, {"measurement": "GI50", "setting": "PC-3 prostate", "result": 1730, "unit": "nM"}, {"measurement": "TGI", "setting": "PC-3 prostate", "result": 3.7, "unit": "µM"}, {"measurement": "GI50", "setting": "OVCAR-8 ovarian", "result": 2090, "unit": "nM"}, {"measurement": "TGI", "setting": "OVCAR-8 ovarian", "result": 5.68, "unit": "µM"}, {"measurement": "GI50", "setting": "HCC-2998 colon", "result": 2090, "unit": "nM"}, {"measurement": "TGI", "setting": "HCC-2998 colon", "result": 3.65, "unit": "µM"}, {"measurement": "GI50", "setting": "M14 melanoma", "result": 2070, "unit": "nM"}, {"measurement": "TGI", "setting": "M14 melanoma", "result": 4.74, "unit": "µM"}, {"measurement": "GI50", "setting": "NCI-H460 lung", "result": 2120, "unit": "nM"}, {"measurement": "TGI", "setting": "NCI-H460 lung", "result": 5.09, "unit": "µM"}, {"measurement": "GI50", "setting": "KM12 colon", "result": 1820, "unit": "nM"}, {"measurement": "TGI", "setting": "KM12 colon", "result": 3.77, "unit": "µM"}, {"measurement": "GI50", "setting": "UACC-62 melanoma", "result": 1730, "unit": "nM"}, {"measurement": "TGI", "setting": "UACC-62 melanoma", "result": 3.48, "unit": "µM"}, {"measurement": "GI50", "setting": "SK-MEL-28 melanoma", "result": 1960, "unit": "nM"}, {"measurement": "TGI", "setting": "SK-MEL-28 melanoma", "result": 3.6, "unit": "µM"}, {"measurement": "GI50", "setting": "OVCAR-5 ovarian", "result": 2230, "unit": "nM"}, {"measurement": "TGI", "setting": "OVCAR-5 ovarian", "result": 5.57, "unit": "µM"}, {"measurement": "GI50", "setting": "A549 NSCLC", "result": 2070, "unit": "nM"}, {"measurement": "TGI", "setting": "A549 NSCLC", "result": 5.54, "unit": "µM"}, {"measurement": "GI50", "setting": "SN12C renal", "result": 1760, "unit": "nM"}, {"measurement": "TGI", "setting": "SN12C renal", "result": 3.42, "unit": "µM"}, {"measurement": "GI50", "setting": "SNB-75 CNS", "result": 1670, "unit": "nM"}, {"measurement": "TGI", "setting": "SNB-75 CNS", "result": 3.45, "unit": "µM"}, {"measurement": "GI50", "setting": "MDA-MB-435", "result": 2310, "unit": "nM"}, {"measurement": "TGI", "setting": "MDA-MB-435", "result": 5.53, "unit": "µM"}, {"measurement": "GI50", "setting": "HCT-116 colon", "result": 1580, "unit": "nM"}, {"measurement": "TGI", "setting": "HCT-116 colon", "result": 3.65, "unit": "µM"}, {"measurement": "GI50", "setting": "NCI/ADR-RES ovarian", "result": 2150, "unit": "nM"}, {"measurement": "TGI", "setting": "NCI/ADR-RES ovarian", "result": 4.73, "unit": "µM"}, {"measurement": "GI50", "setting": "RXF 393 renal", "result": 1720, "unit": "nM"}, {"measurement": "TGI", "setting": "RXF 393 renal", "result": 3.24, "unit": "µM"}, {"measurement": "GI50", "setting": "OVCAR-3 ovarian", "result": 1710, "unit": "nM"}, {"measurement": "TGI", "setting": "OVCAR-3 ovarian", "result": 3.1, "unit": "µM"}, {"measurement": "GI50", "setting": "MDA-MB-231 breast", "result": 2760, "unit": "nM"}, {"measurement": "TGI", "setting": "MDA-MB-231 breast", "result": 8.33, "unit": "µM"}, {"measurement": "GI50", "setting": "HS 578T breast", "result": 2240, "unit": "nM"}, {"measurement": "TGI", "setting": "HS 578T breast", "result": 8.73, "unit": "µM"}, {"measurement": "GI50", "setting": "ACHN renal", "result": 3.35, "unit": "µM"}, {"measurement": "TGI", "setting": "ACHN renal", "result": 12.3, "unit": "µM"}, {"measurement": "GI50", "setting": "HCT-15 colon", "result": 1790, "unit": "nM"}, {"measurement": "TGI", "setting": "HCT-15 colon", "result": 4.02, "unit": "µM"}, {"measurement": "GI50", "setting": "MCF7 breast", "result": 1890, "unit": "nM"}, {"measurement": "TGI", "setting": "MCF7 breast", "result": 5.62, "unit": "µM"}, {"measurement": "GI50", "setting": "MALME-3M melanoma", "result": 1820, "unit": "nM"}, {"measurement": "TGI", "setting": "MALME-3M melanoma", "result": 3.96, "unit": "µM"}, {"measurement": "GI50", "setting": "SF-268 CNS", "result": 1860, "unit": "nM"}, {"measurement": "TGI", "setting": "SF-268 CNS", "result": 4.09, "unit": "µM"}, {"measurement": "GI50", "setting": "786-0 renal", "result": 1810, "unit": "nM"}, {"measurement": "TGI", "setting": "786-0 renal", "result": 3.54, "unit": "µM"}, {"measurement": "GI50", "setting": "MOLT-4 leukemia", "result": 2230, "unit": "nM"}, {"measurement": "TGI", "setting": "MOLT-4 leukemia", "result": 7.97, "unit": "µM"}, {"measurement": "GI50", "setting": "CAKI-1 renal", "result": 2270, "unit": "nM"}, {"measurement": "TGI", "setting": "CAKI-1 renal", "result": 7.29, "unit": "µM"}, {"measurement": "GI50", "setting": "SF-539 CNS", "result": 1690, "unit": "nM"}, {"measurement": "TGI", "setting": "SF-539 CNS", "result": 3.22, "unit": "µM"}]}
